Test results as given in article PMC11100771, “Structural basis of ligand specificity and channel activation in an insect gustatory receptor” (Cell reports, 2024).

Target: T1, Bombyx mori Gr9 (BmGr9) (Bombyx mori, UniProt B3GTD7)
T1 construct: N-terminally Twin-Strep-tagged BmGr9, homotetramer
T1 sequence (B3GTD7 1-449): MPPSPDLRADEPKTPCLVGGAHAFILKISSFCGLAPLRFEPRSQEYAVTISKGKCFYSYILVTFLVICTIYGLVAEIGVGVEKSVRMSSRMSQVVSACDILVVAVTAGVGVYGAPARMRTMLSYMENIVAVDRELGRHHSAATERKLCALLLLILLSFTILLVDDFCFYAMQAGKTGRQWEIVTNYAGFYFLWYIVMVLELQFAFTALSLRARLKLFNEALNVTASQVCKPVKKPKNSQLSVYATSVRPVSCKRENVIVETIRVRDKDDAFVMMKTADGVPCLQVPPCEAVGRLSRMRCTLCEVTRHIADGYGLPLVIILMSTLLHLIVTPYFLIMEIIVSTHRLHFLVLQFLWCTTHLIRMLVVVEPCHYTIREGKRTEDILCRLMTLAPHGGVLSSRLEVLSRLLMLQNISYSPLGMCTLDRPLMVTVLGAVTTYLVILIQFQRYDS
Experiment: cryo-EM structure ([…] Å) with […] D-fructose; EC50 by two-electrode voltage clamp in Xenopus oocytes
Format: cell-based

OCC1(O)OC[C@@H](O)[C@@H](O)[C@@H]1O (stereo partly drawn) [D-fructose]
EC50: 22 mM
